Data taken from US20050187389A1, “Pyrrolopyrimidine derivatives and analogs and their use in the treatment and prevention of diseases” (Ambit Biosciences Corporation, priority 2004, published 2005).

Key:
ABL1 = molecular target: T1, ABL1 (Homo sapiens, UniProt P00519); assay: ABL1 (DKIN) phage-display competitive binding assay
T1 construct: made in house
T1 sequence (P00519 242-493 limits assumed): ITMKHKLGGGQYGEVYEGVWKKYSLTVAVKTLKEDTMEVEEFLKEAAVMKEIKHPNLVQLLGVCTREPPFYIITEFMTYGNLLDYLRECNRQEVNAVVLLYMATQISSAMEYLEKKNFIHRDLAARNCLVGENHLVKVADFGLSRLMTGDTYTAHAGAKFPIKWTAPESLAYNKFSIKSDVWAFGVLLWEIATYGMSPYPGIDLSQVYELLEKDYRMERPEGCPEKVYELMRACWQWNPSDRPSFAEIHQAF
Source text: (§1) Methods for measuring binding affinities for interactions between small molecules and kinases including FLT3, c-KIT, ABL(T334I) [a.k.a. ABL(T315I)], VEGFR-2 (a.k.a. KDR), and EGFR are described in detail in U.S. application Ser. No. 10/873,835, which is incorporated by reference herein in its entirety. The components of the assays include human kinases expressed as fusions to T7 bacteriophage particles and immobilized ligands that bind to the ATP site of the kinases. […] If the test compound binds the kinase it competes with the immobilized ligand and prevents binding to the solid support. […] The results are read out by quantitating the amount of fusion protein bound to the solid support, which is accomplished by either traditional phage plaque assays or by quantitative PCR (qPCR) using the phage genome as a template. […] The concentration of test molecule that reduces the number of phage bound to the solid support by 50% is equal to the Kd for the interaction between the kinase and the test molecule. Typically, data are collected for twelve concentrations of test compound and, the resultant binding curve is fit to a non-cooperative binding isotherm to calculate Kd.
(§2) Described in the exemplary assays below is data from binding with varying kinases. […] The term “ND” represents non-determined values.

VEGFR-2 = molecular target: T2, VEGFR-2 (Homo sapiens, UniProt P35968); assay: VEGFR-2 phage-display competitive binding assay
T2 construct: made in house
T2 sequence (P35968 20-1356): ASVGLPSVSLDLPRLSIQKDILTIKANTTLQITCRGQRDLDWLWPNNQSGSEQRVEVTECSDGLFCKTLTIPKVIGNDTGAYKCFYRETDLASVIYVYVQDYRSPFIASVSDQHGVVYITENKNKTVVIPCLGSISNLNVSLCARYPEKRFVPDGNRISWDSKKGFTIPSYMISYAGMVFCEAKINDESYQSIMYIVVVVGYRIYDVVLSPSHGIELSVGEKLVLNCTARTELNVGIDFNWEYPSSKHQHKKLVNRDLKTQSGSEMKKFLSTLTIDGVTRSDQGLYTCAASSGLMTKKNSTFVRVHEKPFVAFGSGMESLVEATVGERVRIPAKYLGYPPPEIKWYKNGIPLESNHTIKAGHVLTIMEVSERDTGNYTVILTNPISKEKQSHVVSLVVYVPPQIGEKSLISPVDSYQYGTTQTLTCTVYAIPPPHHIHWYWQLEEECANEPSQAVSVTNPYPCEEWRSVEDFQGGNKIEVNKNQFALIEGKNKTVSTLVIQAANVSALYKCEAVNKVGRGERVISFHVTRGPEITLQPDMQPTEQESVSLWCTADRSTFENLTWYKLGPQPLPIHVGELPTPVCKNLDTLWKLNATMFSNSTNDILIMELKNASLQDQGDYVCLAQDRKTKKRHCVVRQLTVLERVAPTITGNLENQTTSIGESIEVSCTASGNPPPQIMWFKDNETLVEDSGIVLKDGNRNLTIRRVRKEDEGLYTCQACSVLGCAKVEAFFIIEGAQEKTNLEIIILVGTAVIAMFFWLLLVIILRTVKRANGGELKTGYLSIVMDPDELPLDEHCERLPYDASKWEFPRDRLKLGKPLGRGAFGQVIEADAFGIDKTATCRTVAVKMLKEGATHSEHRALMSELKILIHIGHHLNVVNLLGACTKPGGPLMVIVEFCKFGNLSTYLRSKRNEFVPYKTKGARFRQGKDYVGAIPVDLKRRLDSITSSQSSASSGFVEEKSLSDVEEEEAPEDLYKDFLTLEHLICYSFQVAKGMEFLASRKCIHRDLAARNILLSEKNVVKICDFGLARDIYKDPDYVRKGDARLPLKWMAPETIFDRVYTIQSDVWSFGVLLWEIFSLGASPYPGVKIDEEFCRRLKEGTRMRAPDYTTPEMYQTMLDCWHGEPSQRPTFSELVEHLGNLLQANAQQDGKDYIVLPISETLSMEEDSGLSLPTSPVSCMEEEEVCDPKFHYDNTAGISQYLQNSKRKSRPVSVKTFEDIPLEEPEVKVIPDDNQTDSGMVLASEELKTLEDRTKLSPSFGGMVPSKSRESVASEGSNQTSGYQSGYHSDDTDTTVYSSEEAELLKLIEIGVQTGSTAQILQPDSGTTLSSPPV
Source text: as §1, §2

PDGFR-β = molecular target: T3, PDGFR-β (Homo sapiens, UniProt P09619); assay: PDGFR-β (DKIN) phage-display competitive binding assay
T3 construct: Kd for PDGFR-β (DKIN); made in house
T3 sequence (P09619 600-962 limits assumed): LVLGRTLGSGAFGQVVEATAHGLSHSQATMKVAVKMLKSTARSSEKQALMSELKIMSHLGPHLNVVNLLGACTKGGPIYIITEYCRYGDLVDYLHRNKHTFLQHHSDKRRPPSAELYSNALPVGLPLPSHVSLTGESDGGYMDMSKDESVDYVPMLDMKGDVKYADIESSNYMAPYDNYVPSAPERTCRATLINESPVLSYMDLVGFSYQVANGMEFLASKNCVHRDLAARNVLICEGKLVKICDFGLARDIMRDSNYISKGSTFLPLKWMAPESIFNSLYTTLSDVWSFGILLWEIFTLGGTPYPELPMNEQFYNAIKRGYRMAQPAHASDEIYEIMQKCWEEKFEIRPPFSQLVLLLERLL
Source text: as §1, §2
Kd values for the interactions between PDGFR-β and candidate small molecule ligands were measured by a phage-display-based competitive binding assay that is described in detail in U.S. Ser. No. 10/406,797 filed 2 Apr. 2003 and incorporated herein by reference. Briefly, T7 phage displaying human PDGFR-β were incubated with an affinity matrix coated with known PDGFR-β inhibitor in the presence of various concentrations of the soluble competitor molecules. […] The Kd for the interaction between the soluble competitor molecule and PDGFR-β is equal to the concentration of soluble competitor molecule that causes a 50% reduction in the number of phage recovered in the eluate compared to a control sample lacking soluble competitor. Since this assay is generic, and any molecule can be used as a soluble competitor, we have determined Kd values for the interaction between PDGFR-β and several small molecules, including those shown below.

FLT3 = molecular target: T4, FLT3 (Homo sapiens, UniProt P36888); assay: FLT3 (DKIN) phage-display competitive binding assay
T4 construct: made in house
T4 sequence (P36888 610-943 limits assumed): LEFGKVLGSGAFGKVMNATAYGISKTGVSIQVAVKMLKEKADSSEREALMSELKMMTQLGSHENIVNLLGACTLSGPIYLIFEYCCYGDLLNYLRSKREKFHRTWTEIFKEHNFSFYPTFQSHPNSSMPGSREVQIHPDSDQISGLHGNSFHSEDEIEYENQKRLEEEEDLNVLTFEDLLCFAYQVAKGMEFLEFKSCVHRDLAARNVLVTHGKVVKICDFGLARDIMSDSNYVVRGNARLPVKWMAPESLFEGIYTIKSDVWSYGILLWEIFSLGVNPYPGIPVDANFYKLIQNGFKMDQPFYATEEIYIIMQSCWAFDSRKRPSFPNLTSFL
Source text: as §1, §2

MV4,11 cells [1] = assay: (MV 4,11) Cell Proliferation Assay with 0.5% Serum "CS0001"; type: cell-based; settings: Homo sapiens
Experimental: (§3) The ability of FLT3 kinase inhibitors to inhibit cellular proliferation was also examined. MV4:11 was a cell line derived from a patient with acute myelogenous leukemia. It expressed a mutant FLT3 protein that was constitutively active. […] Inhibition of FLT3 kinase activity prevented proliferation of these cells, and thus the MV4:11 cell line can be used a model for cellular activity of small molecule inhibitors of FLT3.
(§4) FLT3 Assay using MV4,11 Cells
(§5) MV4,11 cells were grown in an incubator @ 37° C. in 5% CO2 in Medium 2 (RPMI, 10% FBS, 4 mM glutamine, Penn/Strep). The cells were counted daily and the cell density was kept between 1e5 and 8e5 cells/ml.
Day One: Enough cells were harvested for experiments to be conducted in 50 ml conical tubes. The harvested cells were spun at 500 g for 5 min at 4° C., the supernatant was then aspirated and the cells were resuspended in the starting volume of 1× PBS. The cells were again spun at 500 g for 5 min at 4° C. and the supernatant again aspirated. […]
(§6) Day Two: The cells were counted and enough medium 3 was added to decrease density to 2e5 cells/ml. 50 ul (10,000 cells) was aliquoted into each well of a 96 well optical plate using multichannel pipetman. […]

MV4,11 cells [2] = assay: FLT-3 cell assay, (MV 4,11) cell proliferation assay with 10% serum "CS0005"; type: cell-based, human
Experimental: as §3, §4, §5
Day One: Enough cells were harvested for experiments to be conducted in 50 ml conical tubes. The harvested cells were spun at 500 g for 5 min at 4° C., the supernatant was then aspirated and the cells were resuspended in the starting volume of 1× PBS. The cells were again spun at 500 g for 5 min at 4° C. and the supernatant again aspirated. The cells were then resuspended in medium 3 (DMEM w/glut, 10% FBS, Penn/Strep) to a density of 4e^5 cells/ml and incubated @ 37° C. in 5% CO2 O/N.
as §6

Row | Compound | Kd (PDGFR-β) | other results
1 | COc1ccc(-c2cc3c(N[C@@H](C)c4ccccc4)ncnc3n2C(C)C)cc1 [Compound D10] | – | Kd (ABL1): 1000 to 10000 nM
2 | CC(Nc1ncnc2oc(-c3ccccc3)c(-c3ccccc3)c12)c1ccccc1 (stereo not shown) [Compound H3] | – | Kd (VEGFR-2): > 10000 nM
3 | COc1ccc(-c2cc3c(NCc4cccc(C)c4)ncnc3[nH]2)cc1 [Compound I4] | 100 to 1000 nM | –
4 | COC(=O)C(Nc1ncnc2[nH]c(-c3ccc(OC)cc3)cc12)c1ccccc1 (stereo not shown) [Compound I7] | 100 to 1000 nM | –
5 | COc1ccc(-c2cc3c(NCCc4ccccc4)ncnc3[nH]2)cc1 [Compound I8] | 1000 to 10000 nM | Kd (ABL1): 100 to 1000 nM
6 | C[C@H](Nc1ncnc2[nH]c(-c3ccc(O)cc3)cc12)c1ccccc1 [Compound I9] | – | Kd (ABL1): 1000 to 10000 nM
7 | COc1cccc(-c2cc3c(N[C@H](C)c4ccccc4)ncnc3[nH]2)c1 [Compound I10] | 100 to 1000 nM | –
8 | COc1cccc(-c2cc3c(NCc4cccc(C)c4)ncnc3[nH]2)c1 [Compound I12] | – | Kd (FLT3): > 10000 nM
9 | COc1ccc(-c2cc3c(N[C@H](C)c4ccccc4)nc(N[C@@H](C)c4ccccc4)nc3[nH]2)cc1 [Compound M22] | 100 to 1000 nM | –
10 | C[C@@H](Nc1ncnc2c1cc(-c1ccc(O)cc1)n2C)c1ccccc1 [Compound Q2] | 100 to 1000 nM | –
11 | Cn1c(-c2ccc(O)cc2)cc2c(Nc3ccccc3Cl)ncnc21 [Compound Q3] | 100 to 1000 nM | –
12 | CCc1ccccc1Nc1ncnc2c1cc(-c1ccc(O)cc1)n2C [Compound Q4] | 100 to 1000 nM | –
13 | COc1ccc(-c2cc3c(Nc4cccc(O)c4)ncnc3[nH]2)cc1 [Compound S6] | > 10000 nM | –
14 | COc1ccc(-c2cc3c(Nc4ccc(F)c(Cl)c4)ncnc3[nH]2)cc1 [Compound S7] | > 10000 nM | –
15 | COc1ccc(-c2cc3c(Nc4ccc(F)cc4)ncnc3[nH]2)cc1 [Compound S9] | 100 to 1000 nM | –
16 | COc1ccc(-c2cc3c(Nc4cccc(C)c4)ncnc3[nH]2)cc1 [Compound S10] | 100 to 1000 nM | IC50 (MV4,11 cells [1]): < 100 nM; activity in the FLT-3 cell assay, (MV 4,11) cell proliferation assay with 10% serum, "CS0005" (MV4,11 cells [2]): ++ (a Kd of 1,000 nM to 10,000 nM)
17 | COC(=O)c1cccc(Nc2ncnc3[nH]c(-c4cccc(OC)c4)cc23)c1 [Compound S15] | 1000 to 10000 nM | –
18 | COc1cccc(-c2cc3c(Nc4cccc(O)c4)ncnc3[nH]2)c1 [Compound S16] | 1000 to 10000 nM | Kd (FLT3): 100 to 1000 nM; Kd (ABL1): 100 to 1000 nM
19 | Cc1cc(C)cc(Nc2ncnc3[nH]c(-c4ccc(Br)cc4)cc23)c1 [Compound S39] | – | IC50 (MV4,11 cells [1]): 100 to 1000 nM; Kd (FLT3): > 10000 nM
